{
  "source": "patent US12516049B2",
  "about": "“Sulfonylurea ring substituted monocyclic β-lactam antibiotics” (priority 2019, dated 2026)",
  "test_in_all_cases": "MIC, two-fold agar dilution, clinical isolate",
  "assay_type_in_all_cases": "cell-based",
  "key": {"E.coli 020028": {"system": "E.coli 020028", "conditions": "Escherichia coli, single drug, average of three tests", "method": "(§1) The minimum inhibitory concentration (MIC) of the compound and combination with β-lactamase (MBLs) inhibitors against clinically isolated carbapenem-resistant enterobacteriaceae was determined by the two-fold agar dilution method to determine the activity of the compound to be tested against strains producing MBLs. Antibiotics and enzyme inhibitors were weighed separately and dissolved in sterile ultrapure water or dimethyl sulfoxide to prepare mother liquor, MHA medium was prepared, pH was adjusted to 7.2-7.4, and it was sterilized at 121° C. for 15 minutes and placed in a 55° C. water bath for heat preservation. The mother liquor was diluted to the concentration to be tested by double dilution method, an inoculum liquid was prepared by direct bacterial suspension method, 1 mL of the prepared bacteria solution was withdrawn and putted into the inoculation tube, and a positioning needle and an inoculation needle were installed. A bacterial multi-point inoculator was started for inoculation. After the bacterial solution was absorbed by the agar, the plate was placed upside down in an incubator at 37° C. for 16-20 hours, and the results were observed. The average of three tests was taken."}, "E.coli 020031": {"system": "E.coli 020031", "conditions": "Escherichia coli, single drug, average of three tests", "method": "as §1"}, "E.coli 020033": {"system": "E.coli 020033", "conditions": "Escherichia coli, single drug, average of three tests", "method": "as §1"}, "E.coli 115103": {"system": "E.coli 115103", "conditions": "Escherichia coli; E.coli 115103; single drug; average of three tests; read-out: MIC", "method": "as §1"}, "E.coli BAA-2452": {"system": "E.coli BAA-2452", "conditions": "Escherichia coli, BAA2452", "method": "as §1"}, "E.coli C1569": {"system": "E.coli C1569", "conditions": "Escherichia coli, single drug, average of three tests", "method": "as §1"}, "E.coli CRE18": {"system": "E.coli CRE18", "conditions": "Escherichia coli; E.coli CRE18; single drug; average of three tests; read-out: MIC", "method": "as §1"}, "E.coli CRE21": {"system": "E.coli CRE21", "conditions": "Escherichia coli; E.coli CRE21; single drug; average of three tests; read-out: MIC", "method": "as §1"}, "E.coli CRE28": {"system": "E.coli CRE28", "conditions": "Escherichia coli; E.coli CRE28; single drug; average of three tests; read-out: MIC", "method": "as §1"}, "K.p 090339": {"system": "K.p 090339", "method": "as §1"}, "K.p 115004": {"system": "K.p 115004", "method": "as §1"}, "K.p 11544": {"system": "K.p 11544", "conditions": "K.p 11544; single drug; average of three tests; read-out: MIC", "method": "as §1"}, "K.p 13249": {"system": "K.p 13249", "conditions": "K.p 13249; single drug; average of three tests; read-out: MIC", "method": "as §1"}, "K.p 6777": {"system": "K.p 6777", "method": "as §1"}, "K.p BAA-2470": {"system": "K.p BAA-2470", "method": "as §1"}, "K.p C904": {"system": "K.p C904", "method": "as §1"}, "K.p CRE11": {"system": "K.p CRE11", "method": "as §1"}, "K.p CRE12": {"system": "K.p CRE12", "conditions": "single drug, average of three tests", "method": "as §1"}, "K.p CRE16": {"system": "K.p CRE16", "conditions": "single drug, average of three tests", "method": "as §1"}, "K.p HX37": {"system": "K.p HX37", "conditions": "K.p HX37; single drug; average of three tests; read-out: MIC", "method": "as §1"}, "K.p HX77": {"system": "K.p HX77", "conditions": "single drug, average of three tests", "method": "as §1"}, "[1]": {"system": "Morganella morganii C1274", "conditions": "Morganella morganii, C1274", "method": "as §1"}},
  "data": [
    {"smiles": "NC[C@@H]1CN(C[C@@H]2[C@H](NC(=O)/C(=N\\OC3(C(=O)O)CC3)c3csc(N)n3)C(=O)N2S(=O)(=O)O)S(=O)(=O)N1", "note": "[Compound 4]", "values": [
      {"measurement": "MIC", "setting": "E.coli 020028", "value": 0.03, "unit": "µg/mL"},
      {"measurement": "MIC", "setting": "E.coli 020031", "value": 0.5, "unit": "µg/mL"},
      {"measurement": "MIC", "setting": "E.coli 020033", "value": 1, "unit": "µg/mL"},
      {"measurement": "MIC", "setting": "E.coli 115103", "value": 1, "unit": "µg/mL"},
      {"measurement": "MIC", "setting": "E.coli BAA-2452", "value": 0.125, "unit": "µg/mL"},
      {"measurement": "MIC", "setting": "E.coli C1569", "value": 1, "unit": "µg/mL"},
      {"measurement": "MIC", "setting": "E.coli CRE18", "value": 1, "unit": "µg/mL"},
      {"measurement": "MIC", "setting": "E.coli CRE21", "value": 1, "unit": "µg/mL"},
      {"measurement": "MIC", "setting": "E.coli CRE28", "value": 1, "unit": "µg/mL"},
      {"measurement": "MIC", "setting": "K.p 090339", "value": 0.125, "unit": "µg/mL"},
      {"measurement": "MIC", "setting": "K.p 115004", "value": 0.125, "unit": "µg/mL"},
      {"measurement": "MIC", "setting": "K.p 11544", "value": 0.06, "unit": "µg/mL"},
      {"measurement": "MIC", "setting": "K.p 13249", "value": 0.06, "unit": "µg/mL"},
      {"measurement": "MIC", "setting": "K.p 6777", "value": 0.125, "unit": "µg/mL"},
      {"measurement": "MIC", "setting": "K.p BAA-2470", "value": 0.125, "unit": "µg/mL"},
      {"measurement": "MIC", "setting": "K.p C904", "value": 0.125, "unit": "µg/mL"},
      {"measurement": "MIC", "setting": "K.p CRE11", "value": 0.125, "unit": "µg/mL"},
      {"measurement": "MIC", "setting": "K.p CRE12", "value": 0.06, "unit": "µg/mL"},
      {"measurement": "MIC", "setting": "K.p CRE16", "value": 0.06, "unit": "µg/mL"},
      {"measurement": "MIC", "setting": "K.p HX37", "value": 0.25, "unit": "µg/mL"},
      {"measurement": "MIC", "setting": "K.p HX77", "value": 0.03, "unit": "µg/mL"},
      {"measurement": "MIC", "setting": "[1]", "value": 0.125, "unit": "µg/mL"}
    ]}
  ]
}
